Experimental data taken from patent US7935720B2, “Crystal of substituted phenylalkanoic acid ester and process for producing the same” (Asahi Kasei Pharma Corporation, priority 2006, dated 2011).

Tests used:
[1] = Solubility test in Japanese Pharmacopoeia disintegration test fluids (HPLC); format: physicochemical; settings: for Solubility to 1st fluid for disintegration test of Japanese Pharmacopoeia (pH 1.2) / Solubility to 2nd fluid for disintegration test of Japanese Pharmacopoeia (pH 6.8): shaken for 24 hours at 37° C.
Procedure: The type A crystals of compound 1 of the invention prepared according to Example 3, and the type B crystals of compound 1 of the invention prepared according to Example 4 were respectively weighed to 10 mg in a 10-mL centrifuge tube, 3 mL each of 1st fluid for disintegration test of Japanese Pharmacopoeia (pH 1.2) was added respectively, and the mixture solutions were shaken for 24 hours at 37° C. After the shaking, the solutions were filtered, 1 mL of each filtrate was exactly pipeted, and 1 mL of acetonitrile was exactly added to obtain a sample solution.
The sample solutions were analyzed by using HPLC technique with the following conditions and the concentration of the compound in the sample solution was determined by comparing it with that of a standard solution having an already known concentration under the following HPLC conditions, to determine the solubility.
The same test was performed with 2nd fluid for disintegration test of Japanese Pharmacopoeia (pH 6.8), to determine the solubility.
Detector: Ultraviolet absorption spectrometer (wavelength: 235 nm)
Mobile phase: 50 mmol/L sodium dihydrogen phosphate/acetonitrile (55:45)
Column: YMC-Pack Pro C18, internal diameter: 4.6 mm, length: 15 cm (YMC Corporation)
Column temperature: 40° C.

[2] = test system: footpad edema in rat adjuvant arthritis; experiment: Prophylactic and therapeutic effect against rat adjuvant arthritis; format: in vivo; settings: oral, 0.1 to 50 mg/0.2 ml/kg, suspended in 0.5% methylcellulose; compared with the positive control group
Procedure: For the compounds of the invention, a suppressive effect against footpad edema in rat adjuvant arthritis, which is a disease model for chronic rheumatoid arthritis as being one of autoimmune diseases and also a chronic inflammatory disease, was investigated according to the method of International Patent Publication No. WO 03/70686. The test compound was suspended in purified water containing 0.5% methylcellulose, and was orally administered to test animals at a dose of 0.1 to 50 mg/0.2 ml/kg.

[3] = Measurement of water content after filtration; format: physicochemical; settings: wet crystals after filtration and dehydration; calculated from weight of wet crystals and weight after drying
Procedure: The respective water contents of the crystals obtained in Example 10 and Example 11 were calculated from the weight of the wet crystals and the weight of the crystals after drying.

prostaglandin production = settings: reported in Patent Document 1; cited from earlier work
leukotriene production = settings: reported in Patent Document 1; cited from earlier work

| Solubility to 1st fluid for disintegration test of Japanese Pharmacopoeia (pH 1.2) [1] | Solubility to 2nd fluid for disintegration test of Japanese Pharmacopoeia (pH 6.8) [1] | Water content [3] | Solubility of type A crystal relative to type B crystal ([1]; 1st fluid (pH 1.2) and 2nd fluid (pH 6.8)) | Compound | Suppression of footpad edema in rat adjuvant arthritis [2] | Prostaglandin production suppressing effect (prostaglandin production) | Leukotriene production suppressing effect (leukotriene production) |
| --- | --- | --- | --- | --- | --- | --- | --- |
| 0.01 mg/mL | 0.02 mg/mL | 39.3% | – | Cn1ncc2cc(-c3cc(CCC(=O)O)cc(N)c3OC3Cc4ccccc4C3)ccc21 [Type B crystal, 3-[3-amino-4-(indan-2-yloxy)-5-(1-methyl-1H-indazol-5-yl)phenyl]propionic acid] | suppressed footpad edema | – | – |
| 0.03 mg/mL | 0.06 mg/mL | 52.5% | three-fold greater | Cn1ncc2cc(-c3cc(CCC(=O)O)cc(N)c3OC3Cc4ccccc4C3)ccc21 [Type A crystal, 3-[3-amino-4-(indan-2-yloxy)-5-(1-methyl-1H-indazol-5-yl)phenyl]propionic acid] | suppressed footpad edema | – | – |
| – | – | – | – | Cn1ncc2cc(-c3cc(CCC(=O)O)cc(N)c3OC3Cc4ccccc4C3)ccc21 [Compound 1, 3-[3-amino-4-(indan-2-yloxy)-5-(1-methyl-1H-indazol-5-yl)phenyl]propionic acid] | – | prostaglandin production suppressing effect | leukotriene production suppressing effect |
